row,Compound,melting point
1,CN1C2CCC(NC(=O)c3n[nH]c4ccccc34)C1CC2 (configuration not stated),222 to 224 °C
2,Cn1cc(C(=O)O)c(=O)c2c3ccc(F)c(N4CCC(O)(c5cccc(C(F)(F)F)c5)CC4)c3ncc21,245 °C
3,Cc1nc(N2CCN(Cc3ccc(C(=O)N4CCCCC4)cc3)C2=O)sc1-c1ccn[nH]1,156 to 157 °C
4,CC1(C)COC(=O)N1c1nc(-c2cccc(Br)c2)cs1,142 to 144 °C
5,CCc1cn(C)cc(-c2ccc(Cl)c(C(F)(F)F)c2)c1=O,121 to 123 °C
6,CCn1c(=O)c2[nH]c(/C=C/c3ccc(OCOC)cc3)nc2n(CC)c1=O,270 to 271 °C
7,COc1cc(-c2nc(N)sc2SCC2CCCCC2)c(OC)cc1C,111 to 112 °C
8,CC(=O)c1cc2c(c(Cl)c1O)OC(C(O)=NO)C2 (configuration not stated),234 to 235 °C
9,CCCCCCCCCCCCC(C(=O)O)C(O)(CC(=O)O)C(=O)O (configuration not stated),75.4 to 76.1 °C
10,COc1ccc2c(c1)Cc1nnc(OC)n1C=C2,176 to 177 °C
11,Cc1c(C(=O)c2cnn(C)c2O)ccc2sc(=O)n(C)c12,192 to 195 °C
12,O=C1CCc2c(Cl)sc(Cl)c21,168 to 170 °C
13,C=C(C(=O)OC(C)(C)C)C(O)c1ccc(C(=O)OC)cc1 (configuration not stated),70 °C
14,CC1CCC(NC(=O)NS(=O)(=O)c2ccc(CCNC(=O)N3CCC(C)CC3=O)cc2)CC1 (configuration not stated),190 to 191 °C
15,O=C1CN2Cc3c(ccc(Cl)c3Cl)N=C2N1,> 300 °C
16,OC(Cn1cncn1)c1ccc(Cl)cc1Cl (configuration not stated),87 °C
17,CN(C)C1(c2ccccc2)CCC(CNC(=O)NCCc2c[nH]c3ccccc23)CC1 (configuration not stated),159 to 163 °C
18,CCCCSc1c[nH]nc1C1=CCCN(C)C1,120 to 121 °C
19,COC1(NC(=O)c2ccccc2)CC1,190 to 191 °C
20,CC(=O)Nc1ccc(OC(F)(F)C(F)F)cc1[N+](=O)[O-],80 to 81 °C
21,COc1ccc(CCCNc2c(C)c(C)c3c(c2C)C(c2ccc(C(C)C)cc2)C(C)(C)O3)cc1 (configuration not stated),62 to 65 °C
22,CC(C)(C)OC(=O)CCC1(C(=O)O)CCCC1,78 to 81 °C
23,CCCCNc1cc(C(=O)O)cc(S(C)=O)c1Cl (configuration not stated),158 °C
24,CCOC(=O)CCCCOc1ccc2c(c1)CC1CC(=O)NC1=N2 (configuration not stated),180 °C
25,Cc1ccc(S(=O)(=O)NC(=O)C2C(=O)CC(C(C)C)CC2=O)cc1 (configuration not stated),106 to 108 °C
26,CCOC(=O)c1c(N2CCN(C(=O)c3ccco3)CC2)c2cc(F)cnc2[nH]c1=O,207 °C

row,Compound,melting point
1,Cc1nc(-c2cc(C#N)c(=O)[nH]c2C)cs1,305 to 307 °C
2,CCCCCCC/C=C/C(=O)NC1CCCCC1,94 to 96 °C
3,CON=C(C(C)=NN)c1ccccc1,132 °C
4,CC(=O)OCC(C)(C)c1cc(OS(C)(=O)=O)ccc1OC(C)=O,49 to 51 °C
5,c1cc2c(c3c1CCN3)OCCO2,130 to 132 °C
6,COc1ccc2c(c1)CCc1c(cccc1C(=O)O)S2,185 to 187 °C
7,Cc1sc2c(c1C)C(c1ccc(Cl)cc1)=NCc1nnc(C)n1-2,> 250 °C
8,COCCCN1CC[C@@H](CNC(=O)c2cc(Cl)c(N)c3c2OC(C)(C)C3)[C@H](O)C1 (relative stereo),97 °C
9,COc1ccc(SC(C)(CC=C(C)C)C(=O)NO)cc1 (configuration not stated),89 °C
10,CCCNC(=S)Nc1nc(OCc2cccc(C#N)c2)ncc1F,163 to 165 °C
11,Cc1cc2c(cc1O)C(C1(CC3CCCC3)CC1)N(C)CC2 (configuration not stated),136 to 138 °C
12,CN(CC1=C(C#N)C(c2cccc3nonc23)c2c[nH]nc2N1)C(=O)OC(C)(C)C (configuration not stated),207 °C
13,N#Cc1cnn2c1N(C(=O)CN1CCN(C(=O)Nc3cccc(C(F)(F)F)c3)CC1)CC=C2c1cccc(C(F)(F)F)c1,147 to 149 °C
14,CC(C)(C)OC(=O)COC1CCN(C(=O)[C@]2(C)CCCN2C(=O)c2ccc(C#N)cc2)CC1,180 to 182 °C
15,Oc1c(Cl)cc(Cl)cc1Cc1cc(F)cc(Cc2cc(Cl)cc(Cl)c2O)c1O,168 °C
16,Cc1cnc2[nH]cc(/C=C3\N=C(N(C)CC(C)C)NC3=O)c2c1,287 to 289 °C
17,NC(=O)c1sc2nc(N3CCC(NCC(O)c4cccc5c4OCO5)CC3)cc(C(F)(F)F)c2c1N (configuration not stated),221 to 223 °C
18,Cc1cc(=O)[nH]c(SCc2ccccn2)n1,154 to 156 °C
19,CN(C)Cc1nnc2n1-c1ccc(Cl)cc1C(c1ccccc1)=[N+]([O-])C2,217 to 219 °C
20,COC(=O)Cc1ccc2cc(OC)ncc2c1,49.5 to 51 °C
21,Cc1cc2c(S(C)(=O)=O)nc(OCC(F)(F)F)nc2s1,138 to 140 °C
22,O=C(O)CCc1cnn2c(=O)[nH]cnc12,277 °C
23,O=C1O[C@H](CO)CN1c1ccc(C2CCCCC2)cc1,166 to 168 °C
24,CC(C)CCCOc1ccc2[nH]ncc2c1,124 to 126 °C
25,Fc1ccccc1C1=NCC(=S)Nc2ccc(I)cc21,242 to 244 °C
26,COC(=O)c1ccc(CC(C)NCC(O)c2ccc(O)c(CO)c2)cc1 (configuration not stated),118 to 120 °C

# More lines, now with the values ahead:
row,melting point,Compound
1,184 to 186 °C,COc1ccc(Cn2c3c(ccc2=O)C(C)NC(SC)=N3)cc1Cl (configuration not stated)
2,122 to 124 °C,CCCC1(C2=CCN(C)CC2)c2ccccc2CCc2ccccc21
3,143 to 144 °C,Cc1c(F)cccc1NC(=O)c1ccc(CN2C(=O)C3(COc4cc5c(cc43)CCO5)c3ccccc32)cc1 (configuration not stated)
4,176 °C,C[C@]12C[C@H](c3ccc(OCCCCCCCl)cc3)[C@@H]3c4ccc(O)cc4CC[C@H]3[C@@H]1CC[C@@H]2O
5,104 to 107 °C,CCCc1c(OCCCOc2ccc3ccc(OCC(=O)OC)cc3c2C(C)=O)ccc(C(C)=O)c1O
6,108 °C,CCCc1nc(SC(F)F)c(C(=O)O)n1Cc1ccc(-c2ccccc2S(=O)(=O)NC(=O)NCCCc2ccccc2)cc1
7,137 to 140 °C,CCCCn1c2c(c(=O)n(CCCC)c1=O)CN(S(=O)(=O)Cc1ccccc1)N2
8,93 to 95 °C,CCc1cccc(CC(=O)O)c1OCCCc1cn(-c2ncc(C(F)(F)F)cc2Cl)nc1C(C)C
9,232 to 233 °C,O=C(Cc1ccc(OCc2ccccc2F)cc1)NC1(C(=O)O)Cc2ccc(-c3ccc(Cl)cc3)cc2C1 (configuration not stated)
10,100 °C,CCCCCCCNC(=O)Nc1ccccc1CCc1cc(C(C)(C)C)c(O)c(C(C)(C)C)c1
11,122 °C,O=C(NCC1CCCO1)c1cccc(-c2ccc3c(c2)C(c2cc(Cl)ccc2Cl)CC3)c1 (configuration not stated)
12,120 to 121 °C,COc1ccc(COC(=O)n2c(SCc3ccc(C)cn3)nc3cscc32)cc1
13,81.5 to 84.5 °C,C=COCCn1cccc1-c1nc(-c2ccc(OC)cc2)c(-c2ccc(OC)cc2)s1
14,202 °C,NC(=O)N(C(=O)c1c(F)cccc1Cl)c1ccc(SC(F)(F)F)cc1
15,132 to 133 °C,O=C(O)CCN(CCCOc1ccc(C(=O)O)cc1)c1ccc(Cl)cc1
16,> 300 °C,O=C(Nc1ccc(-c2c[nH]c(=O)cn2)cc1)c1ccccc1
17,70 to 77 °C,O=C(CN1CCC(Cc2ccc(F)cc2)CC1)Nc1ccc(O)cc1
18,130 to 134 °C,C[C@H](CC(=O)[C@H](Cc1ccccc1)OC(=O)c1ccccc1)C(=O)N1CCC[C@H]1C(=O)O
19,231 to 232 °C,CC(C)(C)c1ncc(Nc2ncc(-c3ccc4ccncc4c3)c3ccccc23)cn1
20,130 °C,C[C@@]1(c2ccccc2)OC(c2ccccc2)=NC[C@H]1O (racemic)
21,101 to 102 °C,C=C1CC(COc2cccc3cccnc23)(c2ccccc2)OC1=O (configuration not stated)
22,100 to 104 °C,O=C1C(CCO)Oc2ccccc2N1Cc1cccc2ccccc12 (configuration not stated)
23,233 °C,CCOC(=O)C(=O)Nc1ccc2cccc([N+](=O)[O-])c2c1[N+](=O)[O-]

row,melting point,Compound
1,185 to 193 °C,COc1ccc(-c2sc3c(c2CN(C)Cc2ccccc2)c(=O)c(C(C)=O)cn3Cc2ccccc2F)cc1
2,240 to 241 °C,Nc1nc(-c2ccc(CNC(=O)c3cccnc3)s2)cs1
3,179 to 180 °C,CCOc1ccc(N2CCN(Cc3c[nH]c4ncccc34)CC2)cc1
4,137 to 138 °C,CCOC(=O)C(C(=O)OCC)C(=O)c1ccc2oc3ncccc3c(=O)c2c1
5,97 to 100 °C,CS(=O)(=O)c1ccc(-c2cnn(Cc3ccc4ccccc4n3)c(=O)c2-c2ccc(F)cc2)cc1
6,200 to 203 °C,Cc1oc2c(NC(=O)c3c(Cl)cccc3Cl)cccc2c1CN
7,60 °C,Cc1cccc(CC(=O)c2ccnc(-c3ccc(OC(F)(F)F)cc3)c2)n1
8,115 °C,C=CCO[C@H]1[C@@H](OCc2ccccc2)[C@@H](OCc2ccccc2)[C@H](OCc2ccccc2)[C@@H](OCc2ccccc2)[C@@]1(CCC)OC(=O)CCC (racemic)
9,138 °C,Cc1nc(-c2ccc3c(c2)COC(N[C@@H]2CCc4ccccc42)=N3)no1
10,245 to 247 °C,COc1nc2ccccc2n(-c2ccc(Cl)cc2)c1=O
11,94 °C,O=c1c2ccccc2sc2ccc(SCCO)cc12
12,205 to 220 °C,Cc1cc(-c2nc3cc(Cl)cc(CCc4ccccn4)c3o2)[nH]n1
13,142 to 144 °C,CCCCOCCOc1ccc(-c2ccc3c(c2)C=C(C(=O)Nc2ccc(S(=O)Cc4ncon4)cc2)CCN3CC(C)C)cc1 (configuration not stated)
14,184 °C,COc1ccc(-c2ccc(C(=O)Nc3cc4ncc(CN5CCCC5)cc4cc3Cl)cc2)cc1
15,57 to 63 °C,CCc1nc2cc(F)ccc2c(=O)n1NC(=O)C(C)c1ccccc1 (configuration not stated)
16,249 to 253 °C,CN(C(=O)c1nnc2ccccc2c1O)c1ccc(Cl)cc1
17,279 to 281 °C,CC1(C)Oc2ccc(S(=O)(=O)C(F)(F)F)cc2[C@@H](N2Cc3ccccc3C2=O)[C@@H]1O (relative stereo)
18,160 to 165 °C,COc1ccccc1C1(O)C(O)CC(C)(C)C2CN(C(=O)Cc3c[nH]c4ccccc34)CC21 (configuration not stated)
19,153 to 155 °C,CC(C)(Cc1ccccc1)OC(=O)Nc1ccc(-c2ncn(-c3ccc(OC(F)(F)F)cc3)n2)cc1
20,78 to 79 °C,CCOC(=O)c1cnn(Cc2ccccc2)c1-c1ccccc1
21,97 to 102 °C,CCCCCCCCCCCCCC(c1ccccc1)S(=O)(=O)NC(=O)Nc1c(C(C)C)cccc1C(C)C (configuration not stated)
22,154 to 157 °C,CCCCCc1cnc(N2CCC(c3ccc(COc4ccc(S(C)(=O)=O)cc4)nc3)CC2)nc1
